Patent US6737383B1, “Herbicidal oxadiazolidines” (priority 1999, dated 2004)

What was measured:
rice = test: Test B flood test rice; assay type: in vivo, Oryza sativa; details: for Plant response rating, Rice (0 to 10 scale, 0 is no effect, 10 is complete control) / Rice plant response rating (0 to 10 scale, 0 is no effect, 10 is complete control): visual evaluation after twelve to sixteen days; for Rice plant response rating (0 to 10 scale, 0 is no effect, 10 is complete control): under heading Pre-emergence
In short: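 Read-out is a visual response score from 0 (no effect) to 10 (complete control), assigned by comparison with untreated controls. Treatment was applied at the 2-leaf stage, and plants stayed in the greenhouse for twelve to sixteen days before scoring.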

corn = test: Test B pre/postemergence corn; assay type: in vivo, Zea mays; details: for Corn plant response rating (0 to 10 scale): 0 is no effect
In short: (§1)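 Response is a visual 0-to-10 score relative to untreated plants, where 0 means no effect and 10 means complete control, taken twelve to sixteen days after application. Treatments went onto soil at planting and onto foliage of 1- to 4-leaf plants, using a surfactant-containing non-phytotoxic solvent.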

crabgrass = test: Test B pre/postemergence crabgrass; assay type: in vivo, Digitaria sanguinalis; details: for Crabgrass plant response rating (0 to 10 scale): 0 is no effect
In short: as §1

sugar beet = test: Test B pre/postemergence sugar beet; assay type: in vivo, Beta vulgaris; details: for Sugarbeets plant response rating (0 to 10 scale): 0 is no effect
In short: as §1

[1] = Rate 62 g/ha, headed Pre-emergence (flood test species), scale 0 to 10 (0 no effect, 10 complete control)
[2] = Rate 125 g/ha, Pre-emergence, flood test species, scale 0 to 10 where 0 is no effect and 10 is complete control
[3] = Rate 250 g/ha, Pre-emergence, flood-test species, scale 0 to 10, 0 is no effect, 10 is complete control
[4] = Rate 500 g/ha, headed Pre-emergence (flood test species), scale 0 to 10 (0 no effect, 10 complete control)
[5] = Rate 1000 g/ha, Pre-emergence (as headed), scale 0 to 10
[6] = Postemergence, Rate 1000 g/ha, scale 0 to 10 (0 no effect, 10 complete control)
[7] = Preemergence, Rate 62 g/ha, scale of 0 to 10 where 0 is no effect and 10 is complete control
[8] = Preemergence, Rate 125 g/ha, 10 is complete control
[9] = Preemergence, Rate 250 g/ha, scale 0 to 10, 0 is no effect, 10 is complete control
[10] = Preemergence, Rate 500 g/ha, scale 0 to 10 (0 no effect, 10 complete control)
[11] = Rate 62 g/ha, Postemergence, scale of 0 to 10 where 0 is no effect and 10 is complete control
[12] = Rate 125 g/ha, Postemergence, scale 0 to 10
[13] = Rate 500 g/ha, Postemergence, scale 0 to 10
[14] = Rate 1000 g/ha, Preemergence, scale 0 to 10 (0 no effect, 10 complete control)
[15] = Rate 62 g/ha, flood test species, Pre-emergence
[16] = Rate 125 g/ha, flood test species
[17] = Postemergence, Rate 125 g/ha, scale 0 to 10, 0 is no effect, 10 is complete control
[18] = Postemergence, Rate 250 g/ha, scale 0 to 10, 0 is no effect, 10 is complete control
[19] = Postemergence, Rate 500 g/ha, scale of 0 to 10 where 0 is no effect and 10 is complete control
[20] = Preemergence, Rate 62 g/ha, scale 0 to 10 (0 no effect, 10 complete control)
[21] = Preemergence, Rate 125 g/ha, scale of 0 to 10 where 0 is no effect and 10 is complete control
[22] = Preemergence, Rate 500 g/ha, scale 0 to 10, 0 is no effect, 10 is complete control
[23] = Postemergence, Rate 62 g/ha, scale 0 to 10, 0 is no effect, 10 is complete control
[24] = Postemergence, Rate 125 g/ha, scale of 0 to 10 where 0 is no effect and 10 is complete control
[25] = Postemergence, Rate 250 g/ha, scale of 0 to 10, 0 is no effect, 10 is complete control
[26] = Preemergence, Rate 250 g/ha, scale 0 to 10 (0 no effect, 10 complete control)
[27] = Preemergence, Rate 500 g/ha, scale of 0 to 10 where 0 is no effect and 10 is complete control
[28] = Rate 500 g/ha, Postemergence, scale 0 to 10, 0 is no effect, 10 is complete control
[29] = Rate 2000 g/ha, Postemergence, scale 0 to 10
[30] = Rate 2000 g/ha, Preemergence, scale 0 to 10

Compound: CC(C)N(C(=O)n1oc(=O)n(C2CCCC(C(F)(F)F)C2)c1=O)c1ccc(F)cc1 (centres unmarked) [Compound 184]
- Rice plant response rating (rice; [1]): 0
- Rice plant response rating (rice; [2]): 0
- Rice plant response rating (rice; [3]): 0
- Plant response rating, Rice (rice; [4]): 0
- Rice plant response rating (rice; [5]): 0
- Corn plant response rating (corn; [6]): 0
- Corn plant response rating (corn; [7]): 0
- Corn plant response rating (0 to 10 scale) (corn; [8]): 0
- Corn plant response rating (corn; [9]): 0
- Corn plant response rating (corn; [10]): 0
- Corn plant response rating (corn; [11]): 0
- Corn plant response rating (corn; [12]): 0
- Plant response rating (0 to 10; 0 is no effect, 10 is complete control), Corn (corn; Rate 250 g/ha, Postemergence): 0
- Corn plant response rating (corn; [13]): 0
- Plant response rating, Corn (corn; [14]): 2
- Crabgrass plant response rating (crabgrass; [6]): 2
- Crabgrass plant response rating (crabgrass; [7]): 0
- Crabgrass plant response rating (0 to 10 scale) (crabgrass; [8]): 5
- Crabgrass plant response rating (crabgrass; [9]): 7
- Crabgrass plant response rating (crabgrass; [10]): 9
- Crabgrass plant response rating (crabgrass; [11]): 0
- Crabgrass plant response rating (crabgrass; [12]): 0
- Plant response rating (0 to 10; 0 is no effect, 10 is complete control), Crabgrass (crabgrass; Rate 250 g/ha, Postemergence): 0
- Crabgrass plant response rating (crabgrass; [13]): 2
- Plant response rating, Crabgrass (crabgrass; [14]): 9
- Sugarbeets plant response rating (sugar beet; [6]): 0
- Sugarbeets plant response rating (sugar beet; [7]): 0
- Sugarbeets plant response rating (0 to 10 scale) (sugar beet; [8]): 0
- Sugarbeets plant response rating (sugar beet; [9]): 0
- Sugarbeets plant response rating (sugar beet; [10]): 0
- Sugarbeets plant response rating (sugar beet; [11]): 2
- Sugarbeets plant response rating (sugar beet; [12]): 2
- Plant response rating (0 to 10; 0 is no effect, 10 is complete control), Sugarbeets (sugar beet; Rate 250 g/ha, Postemergence): 5
- Sugarbeets plant response rating (sugar beet; [13]): 6
- Plant response rating, Sugarbeets (sugar beet; [14]): 2

Compound: CC1CC1Cn1c(=O)on(C(=O)N(c2ccc(F)cc2)C(C)C)c1=O (centres unmarked) [Compound 402]
- Plant response rating, Rice (0 to 10 scale, 0 is no effect, 10 is complete control) (rice; [15]): 1
- Rice plant response rating (0 to 10 scale, 0 is no effect, 10 is complete control) (rice; [16]): 1
- Rice plant response rating (rice; [3]): 2
- Rice plant response rating (rice; Rate 500 g/ha, Pre-emergence, flood test species, scale 0 to 10 (0 no effect, 10 complete control)): 2
- Plant response rating, Corn (corn; [17]): 0
- Plant response rating, Corn (corn; [18]): 0
- Corn plant response rating (corn; [19]): 0
- Plant response rating, Corn (corn; [20]): 0
- Plant response rating, Corn (corn; [21]): 0
- Corn plant response rating (corn; [9]): 3
- Corn plant response rating (corn; [22]): 9
- Corn plant response rating (corn; [11]): 0
- Plant response rating, Crabgrass (crabgrass; [17]): 3
- Plant response rating, Crabgrass (crabgrass; [18]): 5
- Crabgrass plant response rating (crabgrass; [19]): 9
- Plant response rating, Crabgrass (crabgrass; [20]): 9
- Plant response rating, Crabgrass (crabgrass; [21]): 9
- Crabgrass plant response rating (crabgrass; [9]): 10
- Crabgrass plant response rating (crabgrass; [22]): 10
- Crabgrass plant response rating (crabgrass; [11]): 3
- Plant response rating, Sugarbeets (sugar beet; [18]): 2
- Sugarbeets plant response rating (sugar beet; [19]): 2
- Plant response rating, Sugarbeets (sugar beet; [20]): 0
- Plant response rating, Sugarbeets (sugar beet; [21]): 0
- Sugarbeets plant response rating (sugar beet; [9]): 3
- Sugarbeets plant response rating (sugar beet; [22]): 8
- Sugarbeets plant response rating (sugar beet; [11]): 1

Compound: CC(C)N(C(=O)n1oc(=O)n(CCCC#N)c1=O)c1ccc(F)cc1F [Compound 675]
- Plant response rating, Rice (0 to 10 scale, 0 is no effect, 10 is complete control) (rice; [15]): 0
- Rice plant response rating (0 to 10 scale, 0 is no effect, 10 is complete control) (rice; [16]): 0
- Rice plant response rating (rice; Rate 250 g/ha, Pre-emergence (flood test species), scale 0 to 10, 0 is no effect, 10 is complete control): 0
- Rice plant response rating (rice; Rate 500 g/ha, Pre-emergence section of Table B, 0 to 10 scale (0 no effect, 10 complete control)): 0
- Plant response rating, Corn (corn; [23]): 0
- Corn plant response rating (corn; [24]): 0
- Corn plant response rating (corn; [25]): 0
- Corn plant response rating (corn; [7]): 0
- Plant response rating, Corn (corn; [21]): 3
- Plant response rating, Corn (corn; [26]): 6
- Plant response rating, Corn (corn; [27]): 9
- Corn plant response rating (corn; [28]): 6
- Plant response rating, Crabgrass (crabgrass; [23]): 6
- Crabgrass plant response rating (crabgrass; [24]): 8
- Crabgrass plant response rating (crabgrass; [25]): 9
- Crabgrass plant response rating (crabgrass; [7]): 6
- Plant response rating, Crabgrass (crabgrass; [21]): 7
- Plant response rating, Crabgrass (crabgrass; [26]): 9
- Plant response rating, Crabgrass (crabgrass; [27]): 10
- Crabgrass plant response rating (crabgrass; [28]): 9
- Plant response rating, Sugarbeets (sugar beet; [23]): 0
- Sugarbeets plant response rating (sugar beet; [24]): 2
- Sugarbeets plant response rating (sugar beet; [7]): 5
- Plant response rating, Sugarbeets (sugar beet; [21]): 7
- Plant response rating, Sugarbeets (sugar beet; [27]): 10
- Sugarbeets plant response rating (sugar beet; [28]): 4

Compound: CCN(Cc1ccncc1)C(=O)n1oc(=O)n(C(C)C)c1=O [Compound 189]
- Rice plant response rating (rice; [1]): 0
- Rice plant response rating (rice; [2]): 0
- Rice plant response rating (rice; [3]): 0
- Plant response rating, Rice (rice; [4]): 0
- Corn plant response rating (corn; [7]): 0
- Corn plant response rating (0 to 10 scale) (corn; [8]): 0
- Corn plant response rating (corn; [9]): 0
- Corn plant response rating (corn; [10]): 0
- Corn plant response rating (corn; [11]): 0
- Corn plant response rating (corn; [12]): 0
- Plant response rating (0 to 10; 0 is no effect, 10 is complete control), Corn (corn; Rate 250 g/ha, Postemergence): 0
- Corn plant response rating (corn; [13]): 0
- Crabgrass plant response rating (crabgrass; [7]): 0
- Crabgrass plant response rating (0 to 10 scale) (crabgrass; [8]): 0
- Crabgrass plant response rating (crabgrass; [9]): 0
- Crabgrass plant response rating (crabgrass; [10]): 3
- Crabgrass plant response rating (crabgrass; [11]): 0
- Crabgrass plant response rating (crabgrass; [12]): 0
- Plant response rating (0 to 10; 0 is no effect, 10 is complete control), Crabgrass (crabgrass; Rate 250 g/ha, Postemergence): 0
- Crabgrass plant response rating (crabgrass; [13]): 0
- Sugarbeets plant response rating (sugar beet; [7]): 0
- Sugarbeets plant response rating (0 to 10 scale) (sugar beet; [8]): 0
- Sugarbeets plant response rating (sugar beet; [9]): 0
- Sugarbeets plant response rating (sugar beet; [10]): 0
- Sugarbeets plant response rating (sugar beet; [11]): 0
- Sugarbeets plant response rating (sugar beet; [12]): 0
- Plant response rating (0 to 10; 0 is no effect, 10 is complete control), Sugarbeets (sugar beet; Rate 250 g/ha, Postemergence): 0
- Sugarbeets plant response rating (sugar beet; [13]): 0

Compound: CCN(C(=O)n1oc(=O)n(N(C)c2ccccc2)c1=O)C1CCCCC1 [Compound 183]
- Rice plant response rating (rice; [1]): 0
- Rice plant response rating (rice; [2]): 0
- Rice plant response rating (rice; [3]): 0
- Plant response rating, Rice (rice; [4]): 0
- Rice plant response rating (rice; [5]): 0
- Rice plant response rating (rice; Rate 2000 g/ha, Pre-emergence (as headed), scale 0 to 10): 0
- Corn plant response rating (corn; [6]): 0
- Corn plant response rating (corn; [7]): 0
- Corn plant response rating (0 to 10 scale) (corn; [8]): 0
- Corn plant response rating (corn; [9]): 0
- Corn plant response rating (corn; [10]): 0
- Corn plant response rating (corn; [11]): 0
- Corn plant response rating (corn; [12]): 0
- Plant response rating (0 to 10; 0 is no effect, 10 is complete control), Corn (corn; Rate 250 g/ha, Postemergence): 0
- Corn plant response rating (corn; [13]): 0
- Plant response rating, Corn (corn; [14]): 0
- Corn plant response rating (corn; [29]): 0
- Corn plant response rating (corn; [30]): 0
- Crabgrass plant response rating (crabgrass; [6]): 0
- Crabgrass plant response rating (crabgrass; [7]): 0
- Crabgrass plant response rating (0 to 10 scale) (crabgrass; [8]): 0
- Crabgrass plant response rating (crabgrass; [9]): 0
- Crabgrass plant response rating (crabgrass; [10]): 3
- Crabgrass plant response rating (crabgrass; [11]): 0
- Crabgrass plant response rating (crabgrass; [12]): 0
- Plant response rating (0 to 10; 0 is no effect, 10 is complete control), Crabgrass (crabgrass; Rate 250 g/ha, Postemergence): 0
- Crabgrass plant response rating (crabgrass; [13]): 0
- Plant response rating, Crabgrass (crabgrass; [14]): 0
- Crabgrass plant response rating (crabgrass; [29]): 0
- Crabgrass plant response rating (crabgrass; [30]): 2
- Sugarbeets plant response rating (sugar beet; [6]): 0
- Sugarbeets plant response rating (sugar beet; [7]): 0
- Sugarbeets plant response rating (0 to 10 scale) (sugar beet; [8]): 0
- Sugarbeets plant response rating (sugar beet; [9]): 0
- Sugarbeets plant response rating (sugar beet; [10]): 0
- Sugarbeets plant response rating (sugar beet; [11]): 0
- Sugarbeets plant response rating (sugar beet; [12]): 0
- Plant response rating (0 to 10; 0 is no effect, 10 is complete control), Sugarbeets (sugar beet; Rate 250 g/ha, Postemergence): 0
- Sugarbeets plant response rating (sugar beet; [13]): 0
- Plant response rating, Sugarbeets (sugar beet; [14]): 0
- Sugarbeets plant response rating (sugar beet; [29]): 0
- Sugarbeets plant response rating (sugar beet; [30]): 0
